target: T1, cellular PARG (Homo sapiens, UniProt Q86W56); assay: Nuclear PAR accumulation assay (immunofluorescence high-content imaging); format: cell-based; conditions: HeLa cells, 1 hour compound treatment then MMS 50 μg/mL for an additional hour
T1 construct: endogenous in cells; host or cells: HeLa
Outline: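 HeLa cells pretreated 1 h at 37 °C with compound, then 1 h with 50 μg/mL MMS (final), methanol-fixed and immunostained for PAR with DAPI nuclear counterstain. Nuclear PAR intensity and percent PAR-positive cells quantified by high-content imaging (≥1,000 cells/well). IC50 by four-parameter logistic fit, normalized to 0.1% DMSO and reference-compound controls.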

T1 sequence (Q86W56 whole entry): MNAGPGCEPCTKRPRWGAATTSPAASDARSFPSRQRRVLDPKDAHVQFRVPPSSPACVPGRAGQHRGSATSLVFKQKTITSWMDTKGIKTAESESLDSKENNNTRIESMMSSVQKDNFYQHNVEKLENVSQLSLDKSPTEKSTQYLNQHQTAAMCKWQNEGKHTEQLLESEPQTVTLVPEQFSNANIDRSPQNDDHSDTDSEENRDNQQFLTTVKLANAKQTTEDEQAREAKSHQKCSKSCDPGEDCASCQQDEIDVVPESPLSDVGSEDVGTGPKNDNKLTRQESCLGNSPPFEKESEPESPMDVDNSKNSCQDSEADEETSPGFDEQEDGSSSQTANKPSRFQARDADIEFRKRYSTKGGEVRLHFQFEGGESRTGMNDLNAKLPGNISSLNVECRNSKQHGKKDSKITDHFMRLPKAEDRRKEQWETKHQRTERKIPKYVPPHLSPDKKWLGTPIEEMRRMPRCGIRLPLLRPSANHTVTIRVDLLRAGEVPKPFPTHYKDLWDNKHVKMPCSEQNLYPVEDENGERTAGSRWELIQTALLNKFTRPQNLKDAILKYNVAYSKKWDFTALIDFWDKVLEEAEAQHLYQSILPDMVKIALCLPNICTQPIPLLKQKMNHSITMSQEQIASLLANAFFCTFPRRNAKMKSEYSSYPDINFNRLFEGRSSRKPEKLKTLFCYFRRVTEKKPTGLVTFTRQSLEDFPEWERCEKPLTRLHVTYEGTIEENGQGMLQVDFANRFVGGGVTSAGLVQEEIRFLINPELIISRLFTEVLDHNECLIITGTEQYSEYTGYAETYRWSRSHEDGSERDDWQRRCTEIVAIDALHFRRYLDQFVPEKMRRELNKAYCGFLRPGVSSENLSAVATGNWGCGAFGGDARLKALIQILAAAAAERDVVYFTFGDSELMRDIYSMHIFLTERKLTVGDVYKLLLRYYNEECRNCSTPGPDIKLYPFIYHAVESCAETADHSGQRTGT

Row | SMILES | IC50 [nM]
1 | C#C[C@H]1CN=C2N(CC)C(=O)c3cc(S(=O)(=O)NC4(C)CC4)ccc3N21 [Example 27, (S)-4-ethyl-1-ethynyl-N-(1-methylcyclopropyl)-5-oxo-1,2,4,5-tetrahydroimidazo[1,2-a]quinazoline-7-sulfonamide] | 1000 to 10000
2 | Cc1noc(C)c1CN1C(=O)c2cc(S(=O)(=O)NC3(C)CC3)ccc2N2C1=NC[C@@H]2C1CC1 [Example 70, (S)-1-cyclopropyl-4-((3,5-dimethylisoxazol-4-yl)methyl)-N-(1-methylcyclopropyl)-5-oxo-1,2,4,5-tetrahydroimidazo[1,2-a]quinazoline-7-sulfonamide] | 100 to 1000
3 | [2H]C([2H])(c1cnn(C)c1)N1C(=O)c2cc(S(=O)(=O)NC3(C)CC3)ccc2N2C1=NC[C@@H]2C [Example 91, (S)-4-(dideutero(1-methyl-1H-pyrazol-4-yl)methyl)-1-methyl-N-(1-methylcyclopropyl)-5-oxo-1,2,4,5-tetrahydroimidazo[1,2-a]quinazoline-7-sulfonamide] | 100 to 1000
4 | Cn1cc(CN2C(=O)c3cc(S(=O)(=O)NC4(C)CC4)ccc3N3C2=NC[C@@H]3C2CC2)cn1 [Example 36, (S)-1-cyclopropyl-4-((1-methyl-1H-pyrazol-4-yl)methyl)-N-(1-methylcyclopropyl)-5-oxo-1,2,4,5-tetrahydroimidazo[1,2-a]quinazoline-7-sulfonamide] | 100 to 1000
5 | CC[C@H]1CN=C2N(Cc3cnc(C)s3)C(=O)c3cc(S(=O)(=O)NC4(C)CC4)ccc3N21 [Example 29, (S)-1-ethyl-N-(1-methylcyclopropyl)-4-((2-methylthiazol-5-yl)methyl)-5-oxo-1,2,4,5-tetrahydroimidazo[1,2-a]quinazoline-7-sulfonamide] | 1000 to 10000
6 | Cc1ncc(CN2C(=O)c3cc(S(=O)(=O)NC4(C)CC4)ccc3N3C2=NC[C@@H]3C(C)C)s1 [Example 19, (S)-1-isopropyl-N-(1-methylcyclopropyl)-4-((2-methylthiazol-5-yl)methyl)-5-oxo-1,2,4,5-tetrahydroimidazo[1,2-a]quinazoline-7-sulfonamide] | > 10000
7 | CCN1C(=O)c2cc(S(=O)(=O)NC3(C)CC3)ccc2N2C1=NC[C@H]2C [Example 47, (R)-4-ethyl-1-methyl-N-(1-methylcyclopropyl)-5-oxo-1,2,4,5-tetrahydroimidazo[1,2-a]quinazoline-7-sulfonamide] | 100 to 1000
8 | CC[C@H]1CN=C2N(CC)C(=O)c3cc(S(=O)(=O)NC4(C)CC4)ccc3N21 [Example 41, (S)-1,4-diethyl-N-(1-methylcyclopropyl)-5-oxo-1,2,4,5-tetrahydroimidazo[1,2-a]quinazoline-7-sulfonamide] | > 10000
9 | CC(c1cnn(C)c1)N1C(=O)c2cc(S(=O)(=O)NC3(C)CC3)ccc2N2C1=NC[C@H]2C (single isomer, unassigned) [Example 125] | 1000 to 10000
10 | C#C[C@H]1CN=C2N(Cc3cnc(C)s3)C(=O)c3cc(S(=O)(=O)NC4(C)CC4)ccc3N21 [Example 15, (S)-1-ethynyl-N-(1-methylcyclopropyl)-4-((2-methylthiazol-5-yl)methyl)-5-oxo-1,2,4,5-tetrahydroimidazo[1,2-a]quinazoline-7-sulfonamide] | 100 to 1000
11 | C#C[C@@H]1CN=C2N(CC)C(=O)c3cc(S(=O)(=O)NC4(C)CC4)ccc3N21 [Example 28, (R)-4-ethyl-1-ethynyl-N-(1-methylcyclopropyl)-5-oxo-1,2,4,5-tetrahydroimidazo[1,2-a]quinazoline-7-sulfonamide] | 100 to 1000
12 | C[C@@H]1CN=C2N(Cc3cnn(C)c3)C(=O)c3cc(S(=O)(=O)NC4(C)CC4)cc(C#N)c3N21 [Example 138, (R)-9-cyano-1-methyl-4-((1-methyl-1H-pyrazol-4-yl)methyl)-N-(1-methylcyclopropyl)-5-oxo-1,2,4,5-tetrahydroimidazo[1,2-a]quinazoline-7-sulfonamide] | 100 to 1000
13 | Cc1nc(C)c(CN2C(=O)c3cc(S(=O)(=O)NC4(C)CC4)ccc3N3C2=NC[C@H]3C)[nH]1 [Example 120, (R)-4-((2,4-dimethyl-1H-imidazol-5-yl)methyl)-1-methyl-N-(1-methylcyclopropyl)-5-oxo-1,2,4,5-tetrahydroimidazo[1,2-a]quinazoline-7-sulfonamide] | 1000 to 10000
14 | C[C@@H]1N2C(=NC1(C)C)N(Cc1cnn(C)c1)C(=O)c1cc(S(=O)(=O)NC3(C)CC3)ccc12 [Example 110, (S)-1,2,2-trimethyl-4-((1-methyl-1H-pyrazol-4-yl)methyl)-N-(1-methylcyclopropyl)-5-oxo-1,2,4,5-tetrahydroimidazo[1,2-a]quinazoline-7-sulfonamide] | 100 to 1000

Now from value to compound:

Row | IC50 [nM] | SMILES
15 | ≤ 100 | Cc1cc(CN2C(=O)c3cc(S(=O)(=O)NC4(C)CC4)ccc3N3C2=NC[C@H]3C)on1 [Example 32, (R)-1-methyl-N-(1-methylcyclopropyl)-4-((3-methylisoxazol-5-yl)methyl)-5-oxo-1,2,4,5-tetrahydroimidazo[1,2-a]quinazoline-7-sulfonamide]
16 | ≤ 100 | [2H]C([2H])(c1sc(C)nc1C)N1C(=O)c2cc(S(=O)(=O)NC3(C)CC3)ccc2N2C1=NC[C@H]2C [Example 89, (R)-4-(dideutero(2,4-dimethylthiazol-5-yl)methyl)-1-methyl-N-(1-methylcyclopropyl)-5-oxo-1,2,4,5-tetrahydroimidazo[1,2-a]quinazoline-7-sulfonamide]
17 | 100 to 1000 | Cn1cc(CN2C(=O)c3cc(S(=O)(=O)NC4(C)CC4)ccc3N3C2=NC[C@H]3CN)cn1 [Example 97, (R)-1-(aminomethyl)-4-((1-methyl-1H-pyrazol-4-yl)methyl)-N-(1-methylcyclopropyl)-5-oxo-1,2,4,5-tetrahydroimidazo[1,2-a]quinazoline-7-sulfonamide]
18 | ≤ 100 | [2H]C([2H])(c1cnn(C)c1)N1C(=O)c2cc(S(=O)(=O)NC3(C)CC3)ccc2N2C1=NC[C@H]2C [Example 61, (R)-1-methyl-4-((1-methyl-1H-pyrazol-4-yl)methyl-d2)-N-(1-methylcyclopropyl)-5-oxo-1,2,4,5-tetrahydroimidazo[1,2-a]quinazoline-7-sulfonamide]
19 | ≤ 100 | CC[C@@H]1CN=C2N(Cc3c(C)noc3C)C(=O)c3cc(S(=O)(=O)NC4(C)CC4)ccc3N21 [Example 14, (R)-4-((3,5-dimethylisoxazol-4-yl)methyl)-1-ethyl-N-(1-methylcyclopropyl)-5-oxo-1,2,4,5-tetrahydroimidazo[1,2-a]quinazoline-7-sulfonamide]
20 | ≤ 100 | C[C@@H]1CN=C2N(Cc3cnn(CC#N)c3)C(=O)c3cc(S(=O)(=O)NC4(C)CC4)ccc3N21 [Example 66, (R)-1-methyl-4-((1-cyanomethyl-1H-pyrazol-4-yl)methyl)-N-(1-methylcyclopropyl)-5-oxo-1,2,4,5-tetrahydroimidazo[1,2-a]quinazoline-7-sulfonamide]
21 | ≤ 100 | [2H]C([2H])(c1cnn(C)c1)N1C(=O)c2cc(S(=O)(=O)NC3(C)CC3)c(F)cc2N2C1=NC[C@H]2C [Example 86, (R)-4-(dideutero(1-methyl-1H-pyrazol-4-yl)methyl)-8-fluoro-1-methyl-N-(1-methylcyclopropyl)-5-oxo-1,2,4,5-tetrahydroimidazo[1,2-a]quinazoline-7-sulfonamide]
22 | ≤ 100 | CC[C@@H]1CN=C2N(Cc3cnn(C)c3)C(=O)c3cc(S(=O)(=O)NC4(C)CC4)ccc3N21 [Example 45, (R)-1-ethyl-4-((1-methyl-1H-pyrazol-4-yl)methyl)-N-(1-methylcyclopropyl)-5-oxo-1,2,4,5-tetrahydroimidazo[1,2-a]quinazoline-7-sulfonamide]
23 | ≤ 100 | CC#C[C@@H]1CN=C2N(Cc3cnn(C)c3)C(=O)c3cc(S(=O)(=O)NC4(C)CC4)ccc3N21 [Example 59, (R)-4-((1-methyl-1H-pyrazol-4-yl)methyl)-N-(1-methylcyclopropyl)-5-oxo-1-(prop-1-yn-1-yl)-1,2,4,5-tetrahydroimidazo[1,2-a]quinazoline-7-sulfonamide]
24 | ≤ 100 | C[C@@H]1N=C2N(Cc3cnn(C)c3)C(=O)c3cc(S(=O)(=O)NC4(C)CC4)ccc3N2[C@@H]1C [Example 108, (1R,2S)-1,2-dimethyl-4-((1-methyl-1H-pyrazol-4-yl)methyl)-N-(1-methylcyclopropyl)-5-oxo-1,2,4,5-tetrahydroimidazo[1,2-a]quinazoline-7-sulfonamide]
25 | ≤ 100 | Cc1noc(C)c1CN1C(=O)c2cc(S(=O)(=O)NC3(C)CC3)ccc2N2C1=NC[C@H]2C [Example 8, (R)-4-((3,5-dimethylisoxazol-4-yl)methyl)-1-methyl-N-(1-methylcyclopropyl)-5-oxo-1,2,4,5-tetrahydroimidazo[1,2-a]quinazoline-7-sulfonamide]
26 | ≤ 100 | Cc1noc(C)c1CN1C(=O)c2cc(S(=O)(=O)NC3(C)CC3)ccc2N2C1=NC[C@H]2C(C)C [Example 67, (R)-4-((3,5-dimethylisoxazol-4-yl)methyl)-1-isopropyl-N-(1-methylcyclopropyl)-5-oxo-1,2,4,5-tetrahydroimidazo[1,2-a]quinazoline-7-sulfonamide]
27 | ≤ 100 | Cn1cc(CN2C(=O)c3cc(S(=O)(=O)NC4(C)CC4)ccc3N3CC(C)(C)N=C23)cn1 [Example 64, 2,2-dimethyl-4-((1-methyl-1H-pyrazol-4-yl)methyl)-N-(1-methylcyclopropyl)-5-oxo-1,2,4,5-tetrahydroimidazo[1,2-a]quinazoline-7-sulfonamide]
28 | ≤ 100 | C[C@@H]1CN=C2N(Cc3cnn(C)c3)C(=O)c3cc(S(=O)(=O)NC4(C)CC4)cc(-c4ccc(F)nc4)c3N21 [Example 135, (R)-9-(6-fluoropyridin-3-yl)-1-methyl-4-((1-methyl-1H-pyrazol-4-yl)methyl)-N-(1-methylcyclopropyl)-5-oxo-1,2,4,5-tetrahydroimidazo[1,2-a]quinazoline-7-sulfonamide]
